# Assay results published in patent US20240238423A9, “TETRAHYDROISOQUINOLINE HETEROBIFUNCTIONAL BCL-XL DEGRADERS” (Treeline Biosciences, Inc., priority 2022, published 2024).
# Like-named read-outs stand apart in the source and are kept apart here.
# Biological target: T1, Human BCL-XL protein (N-terminal HiBiT tagged BCL-XL in HT1080 cells) (Homo sapiens, UniProt Q07817)
# T1 construct: expressed in transfected cells; host or cells: HT-1080 (ATCC CCL-121), stably transduced with lentivirus pLV-UBC-N-HiBiT-BCL-XL-PGK-puro and selected with puromycin
# T1 sequence (Q07817 whole entry): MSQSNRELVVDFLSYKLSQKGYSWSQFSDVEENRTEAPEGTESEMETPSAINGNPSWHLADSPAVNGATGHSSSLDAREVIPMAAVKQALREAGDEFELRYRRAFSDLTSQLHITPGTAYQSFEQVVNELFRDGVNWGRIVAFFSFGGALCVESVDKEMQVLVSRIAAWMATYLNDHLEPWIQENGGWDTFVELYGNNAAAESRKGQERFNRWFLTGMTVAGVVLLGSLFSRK
# Assay: HiBiT based degradation assay
# Format: cell-based
# Conditions: HT1080 cells expressing HiBiT-BCL-XL; for Ymin (6 h) / Ymin (24 h): BCL-XL degradation normalized with DMSO control; for DC50: BCL-XL degradation
# Summary of the method: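 This HiBiT degradation assay measured loss of BCL-XL in HT1080 cells that stably express an N-terminal HiBiT-BCL-XL fusion delivered by lentivirus. Cells were added to compound-spotted 384-well plates, and luminescence was read on a PHERAstar FSX reader. Signal was expressed relative to DMSO controls, curves were fitted by four-parameter logistic regression, and for hook-shaped curves the Ymin point served as the bottom plateau when calculating EC50.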
SMILES,Ymin (6 h),Ymin (24 h),"DC50 (6 h, read-out: EC50 (6 h))","DC50 (24 h, read-out: EC50 (24 h))"
"Cc1c(OCCOC2CCN(CC(=O)Nc3ccc4c(C5CCC(=O)NC5=O)nn(C)c4c3)CC2)cccc1-c1ccc(N2CCc3cccc(C(=O)Nc4nc5ccccc5s4)c3C2)nc1C(=O)O (stereo not shown) [Compound 238, 6-(8-(benzo[d]thiazol-2-ylcarbamoyl)-3,4-dihydroisoquinolin-2(1H)-yl)-3-(3-(2-((1-(2-((3-(2,6-dioxopiperidin-3-yl)-1-methyl-1H-indazol-6-yl)amino)-2-oxoethyl)piperidin-4-yl)oxy)ethoxy)-2-methylphenyl)picolinic acid]",B (50% ≤ Ymin < 70%),B (50% ≤ Ymin < 70%),< 100 nM,< 100 nM
"Cc1c(O[C@H]2CC[C@H](CC(F)(F)C(=O)N3CCN(c4ccc5c(C6CCC(=O)NC6=O)nn(C)c5c4)CC3)CC2)cccc1-c1ccc(N2CCc3cccc(C(=O)Nc4nc5ccccc5s4)c3C2)nc1C(=O)O (stereo partly shown) [Compound 239a, 6-(8-(benzo[d]thiazol-2-ylcarbamoyl)-3,4-dihydroisoquinolin-2(1H)-yl)-3-(3-(((1r,4r)-4-(3-(4-(3-(2,6-dioxopiperidin-3-yl)-1-methyl-1H-indazol-6-yl)piperazin-1-yl)-2,2-difluoro-3-oxopropyl)cyclohexyl)oxy)-2-methylphenyl)picolinic acid]",–,B (50% ≤ Ymin < 70%),–,< 100 nM
"Cc1c(OCCC[C@@H]2CCN(CC(=O)Nc3cccc4c(C5CCC(=O)NC5=O)nn(C)c34)C2)cccc1-c1ccc(N2CCc3cccc(C(=O)Nc4nc5ccccc5s4)c3C2)nc1C(=O)O (stereo partly drawn) [Compound 240a, 6-[8-(1,3-benzothiazol-2-ylcarbamoyl)-3,4-dihydro-1H-isoquinolin-2-yl]-3-[3-[3-[(3R)-1-[2-[[3-(2,6-dioxo-3-piperidyl)-1-methyl-indazol-7-yl]amino]-2-oxo-ethyl]pyrrolidin-3-yl]propoxy]-2-methyl-phenyl]pyridine-2-carboxylic acid]",–,B (50% ≤ Ymin < 70%),–,< 100 nM
"Cc1c(OCCC[C@H]2CCN(CC(=O)Nc3cccc4c(C5CCC(=O)NC5=O)nn(C)c34)C2)cccc1-c1ccc(N2CCc3cccc(C(=O)Nc4nc5ccccc5s4)c3C2)nc1C(=O)O (stereo partly drawn) [Compound 240b, 6-(8-(benzo[d]thiazol-2-ylcarbamoyl)-3,4-dihydroisoquinolin-2(1H)-yl)-3-(3-(3-((3S)-1-(2-((3-(2,6-dioxopiperidin-3-yl)-1-methyl-1H-indazol-7-yl)amino)-2-oxoethyl)pyrrolidin-3-yl)propoxy)-2-methylphenyl)picolinic acid]",–,B (50% ≤ Ymin < 70%),–,< 100 nM
"Cc1c(Oc2ccc(CCN3CCN(c4cccc5c(C6CCC(=O)NC6=O)nn(C)c45)CC3)cc2)cccc1-c1ccc(N2CCc3cccc(C(=O)Nc4nc5ccccc5s4)c3C2)nc1C(=O)O (stereo not shown) [Compound 241, 6-[8-(1,3-benzothiazol-2-ylcarbamoyl)-3,4-dihydro-1H-isoquinolin-2-yl]-3-[3-[4-[2-[4-[3-(2,6-dioxo-3-piperidyl)-1-methyl-indazol-7-yl]piperazin-1-yl]ethyl]phenoxy]-2-methyl-phenyl]pyridine-2-carboxylic acid]",–,B (50% ≤ Ymin < 70%),–,< 100 nM
"Cc1cc(OCCCN2CCN(CC(=O)Nc3cccc4c(C5CCC(=O)NC5=O)nn(C)c34)CC2)ccc1-c1ccc(N2CCc3cccc(C(=O)Nc4nc5ccccc5s4)c3C2)nc1C(=O)O (stereo not shown) [Compound 242, 6-[8-(1,3-benzothiazol-2-ylcarbamoyl)-3,4-dihydro-1H-isoquinolin-2-yl]-3-[4-[3-[4-[2-[[3-(2,6-dioxo-3-piperidyl)-1-methyl-indazol-7-yl]amino]-2-oxo-ethyl]piperazin-1-yl]propoxy]-2-methyl-phenyl]pyridine-2-carboxylic acid]",C (Ymin ≥ 70%),C (Ymin ≥ 70%),1000 to 10000 nM,< 100 nM
